Results published in PubChem BioAssay AID330 (DTP/NCI, 2004).
Several values for one entry are separate records, joined by “and”; a condition that tells them apart may be missing. Equal values may be shown once. Inconclusive results and toxic doses are left out.

System: P388 leukemia ip, CD2F1 mice, survival T/C
Test: NCI In Vivo Anticancer Drug Screen. Data for tumor model P388 Leukemia (intraperitoneal) in CD2F1 (CDF1) mice
Conditions: endpoint: median survival time, higher = longer survival
Summary of the method: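 Mice carrying the transplanted tumor received test compound or vehicle. Survival was recorded in each group, and the value is the treated-group measurement divided by that of the vehicle-treated control group.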

[1] = dose: 50.0 mg/kg/injection, schedule: Q01DX005 (ip), vehicle: saline
[2] = dose: 100.0 mg/kg/injection, schedule: Q01DX005 (ip), vehicle: saline
[3] = dose: 200.0 mg/kg/injection, schedule: Q01DX005 (ip), vehicle: saline
[4] = dose: 50.0 mg/kg/injection, schedule: Q01DX005 (ip), vehicle: Klucel (hydroxypropylcellulose) (HPC)
[5] = dose: 100.0 mg/kg/injection, schedule: Q01DX005 (ip), vehicle: Klucel (hydroxypropylcellulose) (HPC)
[6] = dose: 200.0 mg/kg/injection, schedule: Q01DX005 (ip), vehicle: Klucel (hydroxypropylcellulose) (HPC)
[7] = dose: 12.5 mg/kg/injection, schedule: Q04DX003 (ip), vehicle: saline
[8] = dose: 50.0 mg/kg/injection, schedule: Q01DX009 (ip), vehicle: saline with Tween-80
[9] = dose: 100.0 mg/kg/injection, schedule: Q01DX009 (ip), vehicle: saline with Tween-80
[10] = dose: 100.0 mg/kg/injection, schedule: Q04DX003 (ip), vehicle: saline with Tween-80
[11] = dose: 200.0 mg/kg/injection, schedule: Q04DX003 (ip), vehicle: saline with Tween-80
[12] = dose: 50.0 mg/kg/injection, schedule: Q04DX003 (ip), vehicle: saline with Tween-80

With `CCOC(=O)c1c(C)[nH]oc1=O` the T/C (dose: 25.0 mg/kg/injection, schedule: Q01DX009 (ip), vehicle: saline sonified) was 109 % of control, the T/C (dose: 50.0 mg/kg/injection, schedule: Q01DX009 (ip), vehicle: saline sonified) was 100 % of control and the T/C (dose: 100.0 mg/kg/injection, schedule: Q01DX009 (ip), vehicle: saline sonified) was 100 % of control.

In the case of `OCCN(CCO)Cc1nc2cc(Cl)c(Cl)cc2[nH]1`, the T/C [1] is reported as 97 % of control, the T/C [2] is reported as 112 % of control and the T/C [3] is reported as 90 % of control.

For `O=C(NC(Cc1c[nH]c2ccccc12)C(=O)NC(Cc1ccccc1)C(=O)O)OCc1ccccc1` (centres undefined), the T/C [4] was 103 % of control and 93 % of control, the T/C [5] was 106 % of control and the T/C [6] was 89 % of control.

With `C/C=C/C/C=C/CCC(=O)C1OC1C(N)=O` (centres undefined) the T/C (dose: 8.0 mg/kg/injection, schedule: Q01DX009 (ip), vehicle: Klucel (hydroxypropylcellulose) (HPC)) was 93 % of control, the T/C (dose: 16.0 mg/kg/injection, schedule: Q01DX009 (ip), vehicle: Klucel (hydroxypropylcellulose) (HPC)) was 93 % of control and the T/C (dose: 32.0 mg/kg/injection, schedule: Q01DX009 (ip), vehicle: Klucel (hydroxypropylcellulose) (HPC)) was 102 % of control. For the same compound, the T/C (dose: 64.0 mg/kg/injection, schedule: Q01DX009 (ip), vehicle: Klucel (hydroxypropylcellulose) (HPC)) was 93 % of control.

`C[CH2][Sn]1([CH2]C)[O]C(=O)CC(=O)[O]1` was tested, and the T/C (dose: 1.56 mg/kg/injection, schedule: Q04DX003 (ip), vehicle: saline) was 105 % of control and 120 % of control, the T/C (dose: 3.12 mg/kg/injection, schedule: Q04DX003 (ip), vehicle: saline) was 115 % of control and 118 % of control and the T/C (dose: 6.25 mg/kg/injection, schedule: Q04DX003 (ip), vehicle: saline) was 114 % of control and 124 % of control. The T/C [7] was 109 % of control.

With `CN(C)C(=O)c1cccc(COc2ccc([N+](=O)[O-])cc2Cl)c1` the T/C [8] was 110 % of control and the T/C [9] was 110 % of control.

For `CC1CN1P(=O)(N1CCCCCC1)N1CC1C` (centres undefined), the T/C [7] was 104 % of control, the T/C (dose: 22.0 mg/kg/injection, schedule: Q01DX009 (ip), vehicle: saline) was 122 % of control and the T/C (dose: 25.0 mg/kg/injection, schedule: Q04DX003 (ip), vehicle: saline) was 100 % of control. The T/C (dose: 33.0 mg/kg/injection, schedule: Q01DX009 (ip), vehicle: saline) was 155 % of control, the T/C (dose: 50.0 mg/kg/injection, schedule: Q01DX009 (ip), vehicle: saline) was 154 % of control and 166 % of control and the T/C (dose: 75.0 mg/kg/injection, schedule: Q01DX009 (ip), vehicle: saline) was 111 % of control. The T/C (dose: 100.0 mg/kg/injection, schedule: Q04DX003 (ip), vehicle: saline) was 158 % of control.

For `CC[N+](C)(CC)CCSC1=Nc2ccccc2N=C(c2ccc(Sc3ccccc3)cc2)C1`, the T/C (dose: 1.56 mg/kg/injection, schedule: Q01DX009 (ip), vehicle: Klucel (hydroxypropylcellulose) (HPC)) was 117 % of control, the T/C (dose: 3.12 mg/kg/injection, schedule: Q01DX009 (ip), vehicle: Klucel (hydroxypropylcellulose) (HPC)) was 99 % of control and the T/C (dose: 6.25 mg/kg/injection, schedule: Q01DX009 (ip), vehicle: Klucel (hydroxypropylcellulose) (HPC)) was 106 % of control and 108 % of control.

In the case of `COc1ccc([N+](=O)[O-])cc1NC(=O)C1C(=O)C(=O)N(c2cc([N+](=O)[O-])ccc2OC)C1=O` (centres undefined), the T/C (dose: 50.0 mg/kg/injection, schedule: Q01DX009 (ip), vehicle: Klucel (hydroxypropylcellulose) (HPC)) is reported as 100 % of control, the T/C (dose: 100.0 mg/kg/injection, schedule: Q01DX009 (ip), vehicle: Klucel (hydroxypropylcellulose) (HPC)) is reported as 100 % of control and the T/C (dose: 200.0 mg/kg/injection, schedule: Q01DX009 (ip), vehicle: Klucel (hydroxypropylcellulose) (HPC)) is reported as 115 % of control.

In the case of `O=C1CCC(C(=O)N/N=C\C=N/NC(=O)C2CCC(=O)N2)N1` (centres undefined), the T/C (dose: 5.0 mg/kg/injection, schedule: Q01DX009 (ip), vehicle: saline with Tween-80) is reported as 101 % of control, the T/C (dose: 10.0 mg/kg/injection, schedule: Q01DX009 (ip), vehicle: saline with Tween-80) is reported as 103 % of control and the T/C (dose: 20.0 mg/kg/injection, schedule: Q01DX009 (ip), vehicle: saline with Tween-80) is reported as 103 % of control.

For `CC1(C)c2ccccc2Nc2ccccc21`, the T/C [10] was 100 % of control and the T/C [11] was 91 % of control.

In the case of `CCN(CC)CCOC(=O)C(C)c1cccc2c(=O)cc(-c3ccccc3)oc12` (centres undefined), the T/C [4] is reported as 90 % of control, the T/C [5] is reported as 101 % of control and the T/C [6] is reported as 101 % of control.

`Cc1ccc(-c2nnc(N)o2)cc1` was tested, and the T/C (dose: 60.0 mg/kg/injection, schedule: Q01DX005 (ip), vehicle: saline with Tween-80) was 100 % of control, the T/C (dose: 120.0 mg/kg/injection, schedule: Q01DX005 (ip), vehicle: saline with Tween-80) was 100 % of control and the T/C (dose: 240.0 mg/kg/injection, schedule: Q01DX005 (ip), vehicle: saline with Tween-80) was 99 % of control.

In the case of `CCCCCCCCN1COC2CCc3ccccc3C21` (centres undefined), the T/C [1] is reported as 100 % of control, the T/C [2] is reported as 101 % of control and the T/C [3] is reported as 100 % of control.

With `COC(=O)CSSCc1ccccc1` the T/C (dose: 50.0 mg/kg/injection, schedule: Q01DX005 (ip), vehicle: suspension in saline) was 100 % of control, the T/C (dose: 100.0 mg/kg/injection, schedule: Q01DX005 (ip), vehicle: suspension in saline) was 107 % of control and the T/C (dose: 200.0 mg/kg/injection, schedule: Q01DX005 (ip), vehicle: suspension in saline) was 107 % of control.

`CS/C(Nc1ccccc1)=C1\CCCn2c1nc1ccccc1c2=O` was tested, and the T/C (dose: 25.0 mg/kg/injection, schedule: Q01DX001 (ip), vehicle: saline with Tween-80) was 105 % of control, the T/C (dose: 50.0 mg/kg/injection, schedule: Q01DX001 (ip), vehicle: saline with Tween-80) was 99 % of control and the T/C (dose: 100.0 mg/kg/injection, schedule: Q01DX001 (ip), vehicle: saline with Tween-80) was 90 % of control and 91 % of control.

For `C[C@H](C(O)CC(=O)C(C)(C)O)[C@H]1CC[C@@]2(C)[C@@H]3CC[C@H]4C(C)(C)[C@@H](OC5OC(COC6OC(CO)C(O)C(O)C6O)C(O)C(O)C5O)CC[C@]4(C)C3=CC[C@]12C` (some centres undefined), the T/C (dose: 9.25 mg/kg/injection, schedule: Q01DX005 (ip), vehicle: saline) was 100 % of control, the T/C (dose: 18.5 mg/kg/injection, schedule: Q01DX005 (ip), vehicle: saline) was 100 % of control and the T/C (dose: 37.0 mg/kg/injection, schedule: Q01DX005 (ip), vehicle: saline) was 112 % of control. The T/C (dose: 74.0 mg/kg/injection, schedule: Q01DX005 (ip), vehicle: saline) was 105 % of control.

With `CCn1c2ccccc2c2cc(N=Nc3[nH]c4ccccc4c3CN(C)C)ccc21` the T/C [8] was 107 % of control and 108 % of control (2×), the T/C [9] was 105 % of control and 106 % of control and the T/C (dose: 200.0 mg/kg/injection, schedule: Q01DX009 (ip), vehicle: saline with Tween-80) was 100 % of control and 115 % of control and 118 % of control.

In the case of `S=c1n(-c2ccc(Cl)cc2)c2nc3ccccc3nc(/c2=N\Nc2ccccc2)n1-c1ccc(Br)cc1`, the T/C (dose: 50.0 mg/kg/injection, schedule: Q01DX005 (ip), vehicle: saline with Tween-80) is reported as 92 % of control, the T/C (dose: 100.0 mg/kg/injection, schedule: Q01DX005 (ip), vehicle: saline with Tween-80) is reported as 105 % of control and the T/C (dose: 200.0 mg/kg/injection, schedule: Q01DX005 (ip), vehicle: saline with Tween-80) is reported as 105 % of control.

`CCCCCCCCN(c1ccc(C(=O)NC(CCC(=O)OCC)C(=O)OCC)cc1)S(=O)(=O)c1ccc(C)cc1` (centres undefined) was tested, and the T/C (dose: 12.5 mg/kg/injection, schedule: Q04DX003 (ip), vehicle: saline with Tween-80) was 104 % of control, the T/C (dose: 25.0 mg/kg/injection, schedule: Q04DX003 (ip), vehicle: saline with Tween-80) was 100 % of control and the T/C [12] was 95 % of control.

With `CC(C)(C)C1CCC2(N3CCOCC3)C(C#N)CC2C1` (centres undefined) the T/C (dose: 25.0 mg/kg/injection, schedule: Q01DX005 (ip), vehicle: Klucel (hydroxypropylcellulose) (HPC)) was 105 % of control, the T/C [4] was 102 % of control and the T/C (dose: 50.0 mg/kg/injection, schedule: Q01DX005 (ip), vehicle: saline + Tween-80 + alcohol) was 105 % of control. For the same compound, the T/C [5] was 103 % of control, the T/C (dose: 100.0 mg/kg/injection, schedule: Q01DX005 (ip), vehicle: saline + Tween-80 + alcohol) was 110 % of control and the T/C [6] was 97 % of control. For the same compound, the T/C (dose: 200.0 mg/kg/injection, schedule: Q01DX005 (ip), vehicle: saline + Tween-80 + alcohol) was 94 % of control.

`COC(=O)C1=C(C)NC(=S)NC1c1ccco1` (centres undefined) was tested, and the T/C [10] was 95 % of control, the T/C [11] was 95 % of control and the T/C (dose: 400.0 mg/kg/injection, schedule: Q04DX003 (ip), vehicle: saline with Tween-80) was 100 % of control.

`CC(C)(C)c1cc(C(C)(C)O)c2c(c1)C(C)(C)OS2(C)Cl` (centres undefined) was tested, and the T/C [12] was 104 % of control.

With `COc1ccc(CCN/C=C2\Cc3c(Cl)cccc3C2=O)cc1OC` the T/C (dose: 100.0 mg/kg/injection, schedule: Q04DX003 (ip), vehicle: Klucel (hydroxypropylcellulose) (HPC)) was 100 % of control, the T/C (dose: 200.0 mg/kg/injection, schedule: Q04DX003 (ip), vehicle: Klucel (hydroxypropylcellulose) (HPC)) was 93 % of control and the T/C (dose: 400.0 mg/kg/injection, schedule: Q04DX003 (ip), vehicle: Klucel (hydroxypropylcellulose) (HPC)) was 99 % of control.
